In paper PMC8307506, “Identification of Dihydromyricetin and Metabolites in Serum and Brain Associated with Acute Anti-Ethanol Intoxicating Effects in Mice” (International Journal of Molecular Sciences, 2021):

What was measured:
[1] = set-up: method as in PMID 29969512; details: cited from earlier work
C57BL/6J mice = assay: Ethanol-induced loss of righting reflex (LORR); format: in vivo
Description: Eight-week-old male and female C57BL/6J mice (Jackson’s Laboratories, Bar Harbor, ME, USA) were housed 4 mice to a cage (separated by sex) and maintained on 12-h light, 12-h dark cycles (lights on at 0700 h) in the animal facility at the Department of Animal Sciences, Rutgers University. Following 1-week acclimation, animals were given ad libitum access to water and a polyphenol-free diet (PFD; 3.82 kcal/g, 10% fat, 20% protein, 70% carbohydrate; D12450H; Research Diets, Inc., New Brunswick, NJ, USA) for at least 10 days. For PK studies, after an overnight fast, mice were administered 50 mg/kg DHM (dissolved in 0.9% saline with 10% DMSO) by either IP injection or oral gavage. […] Duration of LORR was determined by ability to return upright 3 times within 30 s. To determine whether ethanol-induced tolerance developed, one week (Week 1; Baseline) prior to the 6-week repeated DHM dosing study all mice were oral dose with ethanol (5 g/kg) without any IP injection and LORR was measured. […]
Pharmacokinetic parameters were calculated using noncompartmental analysis. Elimination half-life (T1/2) was calculated with R software from the linear regression of the terminal phase of the log serum concentration-time curve. The AUC0→24 was calculated with OriginLab software by trapezoidal analysis of the serum concentration-time plot. Cmax and Tmax were determined directly from observed data. Data are expressed as mean ± SEM. Statistical significance between AUC0→24 among test groups was calculated with an independent t-test (GraphPad software, San Diego, CA, USA). Time to LORR was analyzed by repeated measured ANOVA. Tolerance was determined by mean split in LORR response and confirmed with paired t-test (Week 1 vs. Week 8). Statistical significance of serum concentrations for individual time points was calculated using a two-way analysis of variance (ANOVA) analysis. […] Statistical significance of electrophysiology results compound GABAergic modulation was determined using a paired t-test (Vehicle control vs. Compound, GraphPad software, San Diego CA, USA). p < 0.05 was considered significant.

[2] = set-up: method as in PMID 27951743; details: rats; cited from earlier work
[3] = Quantification of DHM in brain samples; format: in vivo, mice; details: for Brain Concentration 15 min post DHM: mean ± SEM
Description: Eight-week-old male and female C57BL/6J mice (Jackson’s Laboratories, Bar Harbor, ME, USA) were housed 4 mice to a cage (separated by sex) and maintained on 12-h light, 12-h dark cycles (lights on at 0700 h) in the animal facility at the Department of Animal Sciences, Rutgers University. Following 1-week acclimation, animals were given ad libitum access to water and a polyphenol-free diet (PFD; 3.82 kcal/g, 10% fat, 20% protein, 70% carbohydrate; D12450H; Research Diets, Inc., New Brunswick, NJ, USA) for at least 10 days. For PK studies, after an overnight fast, mice were administered 50 mg/kg DHM (dissolved in 0.9% saline with 10% DMSO) by either IP injection or oral gavage. Oral gavage was performed using single-use, sterile plastic feeding tubes for mice (20 ga × 30 mm; cat# FTP-20-30, Instech Laboratories, (Plymouth Meeting, PA, USA). Mice were deeply anesthetized with 5% isoflurane mixed with oxygen, and blood was collected by cardiac puncture. Following cardiac puncture, animals were exsanguinated and transcardial perfusion with 0.9% saline was performed to ensure blood removal from the brain tissue. Blood and brain samples were collected from a total of 85 mice at 0.25, 0.75, 1.5, 3, 6, 12, 24 h (3–4 mice for each sex and timepoint). Tissues were immediately homogenized with 0.2% formic acid at 1:2 (w/v), and frozen at −80 °C until analysis. Blood was centrifuged at 3000× g for 10 min at 4 °C to isolate serum. For efficacy studies, mice (n = 8/sex) were fasted at 5 h prior to Ethanol gavage 5 g/kg (37% Ethanol in water). DHM 50 mg/kg IP (dissolved in 0.9% saline with 10% DMSO) was administered at 0, 15, 45, 90 and 180 min prior to Ethanol oral gavage. Each mouse was tested at each time point 7 days apart over 6-week period. At the time of Ethanol gavage, mice were placed in oversized conical holders (L: 152 mm X W: 37 mm) and observed for ability to return upright upon being placed in a supine position. Duration of LORR was determined by ability to return upright 3 times within 30 s. To determine whether ethanol-induced tolerance developed, one week (Week 1; Baseline) prior to the 6-week repeated DHM dosing study all mice were oral dose with ethanol (5 g/kg) without any IP injection and LORR was measured. Mice were then re-tested in a similar fashion with oral ethanol 1 week after the DHM 6-week period (Week 8; Post). […] All animal studies were approved by the Institutional Animal Care and Use Committee of Rutgers University (Bello; PROTO999900014, OLAW #A3262-01, 15 March 2017) and complied with NIH Guide for the Care and Use of Laboratory Animals.
Whole brain samples were homogenized in FA. All brain homogenates were stored at −80 °C and conditioned to room temperature prior to analysis. An aliquot of 300 µL of brain homogenate was added to 50 µL IS solution (417 ng/mL in EtOAc) and 500 µL of EtOAc in an Eppendorf tube. Samples were then vortexed for 30 s and sonicated for 1 min. Samples were centrifuged for 2 min at 3000× g and the supernatant transferred to a glass vial with 10 µL of 2% ascorbic acid in methanol. Samples were extracted two more times with 500 µL EtOAc and the supernatant transferred to the corresponding vial and dried under vacuum. Each sample was then reconstituted with 100 µL of 45% MeOH with 0.1% FA, centrifuged, and aliquoted into an HPLC vial for analysis.
An Agilent 1290 Infinity II UPLC system interfaced with an Agilent 6470 Triple Quadrupole Mass Spectrometer with an electrospray ionization source (Agilent Technology, Palo Alto, CA, USA) was used for sample analysis. An Waters Acquity UPLC BEH C8 column (2.1 × 150 mm, 1.7 μm) (Milford, MA, USA) column with a VanGuard Acquity C8 guard column (2.1 × 5 mm, 1.7 μm) (Milford, MA, USA) was used for chromatographic separation. The binary mobile phases consisted of water with 0.1% FA (phase A) and acetonitrile (ACN) with 0.1% formic acid (phase B). The flow rate was set at 0.450 mL/min. […]

[4] = set-up: method as in PMID 28534405; details: Sprague Dawley rats, 100 mg/kg PO; cited from earlier work

Question: With `O=C1c2c(O)cc(O)cc2O[C@H](c2cc(O)c(O)c(O)c2)[C@H]1O` [DHM, Dihydromyricetin] as the compound, how does the cellular permeability [1] read?
Answer: 1.84 ×10⁻⁶ cm/s

Question: And the “ethanol-induced loss of righting reflex” value (C57BL/6J mice; C57BL/6J mice, DHM 50 mg/kg IP 0 or 15 min prior to ethanol PO 5 g/kg)?
Answer: significantly reduced

Question: What about the “LORR compared with vehicle treated mice” value (C57BL/6J mice; female mice, DHM 50 mg/kg IP at time 0 and 45 min before oral ethanol 5 g/kg, p < 0.05) of the same compound?
Answer: reducing LORR

Question: And the LORR (C57BL/6J mice; responsive mice (5 males/3 females), DHM 50 mg/kg IP at time 0 and 15 min prior to ethanol PO, p < 0.05)?
Answer: demonstrated a reduction in LORR

Question: What about the oral absolute bioavailability [2] of the same compound?
Answer: 4.02%

Question: And the “Concentration in brain tissue” value ([3]; 15 min post DHM 50 mg/kg PO or IP, male and female mice, range over groups)?
Answer: 50.9 to 861.5 nmol/g

Question: What about the “Detection of DHM in brain samples” value ([3]; 45 min or longer post PO or IP administration of DHM 50 mg/kg) of the same compound?
Answer: not detected

Question: And the “Brain Concentration 15 min post DHM” value ([3]; female mice, DHM 50 mg/kg IP)?
Answer: 864 ± 220 nmol/g

Question: What about the “Brain Concentration 15 min post DHM” value ([3]; female mice, DHM 50 mg/kg PO) of the same compound?
Answer: 50.9 ± 2.6 nmol/g

Question: What about the “Brain Concentration 15 min post DHM” value ([3]; male mice, DHM 50 mg/kg IP) of the same compound?
Answer: 672 ± 85 nmol/g

Question: What about the “Brain Concentration 15 min post DHM” value ([3]; male mice, DHM 50 mg/kg PO) of the same compound?
Answer: 423 ± 66 nmol/g

Question: What about the “time DHM detected in brain tissue post administration” value [4] of the same compound?
Answer: up to 12 h
